# Test results: ChEMBL document CHEMBL1201862, “PubChem BioAssay data set” (2004)
# Calls of active or inactive are those of the source. Rule as the data show it, for most assays here: actives have a measured IC50 and inactives only a lower limit.
# How the values were obtained:
# [1] = target: T1, Sentrin-specific protease 7 (Homo sapiens, UniProt Q9BQF6); format: functional;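 also: Luminescence-based dose-response confirmation of ultra-high-throughput screening hits, measuring inhibition of SENP7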
# T1 sequence (Q9BQF6 whole entry): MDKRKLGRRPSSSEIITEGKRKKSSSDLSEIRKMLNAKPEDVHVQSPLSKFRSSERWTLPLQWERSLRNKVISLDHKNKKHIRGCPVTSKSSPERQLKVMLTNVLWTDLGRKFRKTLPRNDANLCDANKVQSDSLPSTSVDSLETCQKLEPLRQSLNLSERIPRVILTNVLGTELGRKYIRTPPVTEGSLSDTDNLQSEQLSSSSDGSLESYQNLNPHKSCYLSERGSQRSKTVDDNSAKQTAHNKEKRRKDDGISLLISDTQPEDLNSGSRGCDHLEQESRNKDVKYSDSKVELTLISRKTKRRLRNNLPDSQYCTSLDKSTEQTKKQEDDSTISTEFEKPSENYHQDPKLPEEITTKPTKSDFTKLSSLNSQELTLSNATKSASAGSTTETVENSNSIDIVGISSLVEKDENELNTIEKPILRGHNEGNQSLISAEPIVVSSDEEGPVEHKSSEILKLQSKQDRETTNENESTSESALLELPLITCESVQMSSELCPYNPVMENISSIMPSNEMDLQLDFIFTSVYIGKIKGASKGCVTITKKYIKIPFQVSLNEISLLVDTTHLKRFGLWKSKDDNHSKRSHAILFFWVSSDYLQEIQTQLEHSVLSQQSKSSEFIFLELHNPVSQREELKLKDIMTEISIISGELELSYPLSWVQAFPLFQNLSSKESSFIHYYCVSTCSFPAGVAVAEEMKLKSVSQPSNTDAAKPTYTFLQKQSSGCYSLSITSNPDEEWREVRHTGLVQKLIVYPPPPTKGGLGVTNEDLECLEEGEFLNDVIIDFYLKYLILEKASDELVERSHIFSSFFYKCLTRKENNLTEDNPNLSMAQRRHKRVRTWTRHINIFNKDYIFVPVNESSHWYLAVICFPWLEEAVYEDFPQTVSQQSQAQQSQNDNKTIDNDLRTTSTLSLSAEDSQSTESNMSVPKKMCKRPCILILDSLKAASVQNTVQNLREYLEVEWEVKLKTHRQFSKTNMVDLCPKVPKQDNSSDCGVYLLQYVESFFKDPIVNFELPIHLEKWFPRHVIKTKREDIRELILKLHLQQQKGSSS
# Albumin = Albumin (Bos taurus, UniProt P02769); experiment: Counterscreen for inhibitors of T-cell receptor (TCR)-CD3 interaction: Fluorescence-based biochemical high throughput dose response assay to identify inhibitors of T-cell receptor (TCR)-CD3 interaction using a TAMRA-labeled BSA probe.; format: functional
# Sequence of Albumin (P02769 whole entry): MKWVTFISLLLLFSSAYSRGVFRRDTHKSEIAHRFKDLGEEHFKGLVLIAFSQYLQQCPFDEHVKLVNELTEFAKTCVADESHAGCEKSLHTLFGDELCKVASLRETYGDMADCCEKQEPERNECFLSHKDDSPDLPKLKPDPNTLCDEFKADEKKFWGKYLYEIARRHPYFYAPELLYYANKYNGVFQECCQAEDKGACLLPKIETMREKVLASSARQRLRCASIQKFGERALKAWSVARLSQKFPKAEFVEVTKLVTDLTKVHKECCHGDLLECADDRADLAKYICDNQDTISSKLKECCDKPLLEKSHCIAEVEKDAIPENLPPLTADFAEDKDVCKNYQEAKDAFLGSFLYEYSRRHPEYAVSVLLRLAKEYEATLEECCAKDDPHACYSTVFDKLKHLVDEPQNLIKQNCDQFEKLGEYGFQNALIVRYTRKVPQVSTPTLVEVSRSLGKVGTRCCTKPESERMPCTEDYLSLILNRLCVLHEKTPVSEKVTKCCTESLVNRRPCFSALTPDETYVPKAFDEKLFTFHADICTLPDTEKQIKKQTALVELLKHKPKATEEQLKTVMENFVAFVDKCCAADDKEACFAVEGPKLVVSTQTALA
# Caspase-3 = target: T2, Caspase-3 (Homo sapiens, UniProt P42574); format: functional;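 also: Dose-response selectivity test against caspase-3 for candidate inhibitors of sentrin-specific proteases (SENPs)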
# T2 sequence (P42574 whole entry): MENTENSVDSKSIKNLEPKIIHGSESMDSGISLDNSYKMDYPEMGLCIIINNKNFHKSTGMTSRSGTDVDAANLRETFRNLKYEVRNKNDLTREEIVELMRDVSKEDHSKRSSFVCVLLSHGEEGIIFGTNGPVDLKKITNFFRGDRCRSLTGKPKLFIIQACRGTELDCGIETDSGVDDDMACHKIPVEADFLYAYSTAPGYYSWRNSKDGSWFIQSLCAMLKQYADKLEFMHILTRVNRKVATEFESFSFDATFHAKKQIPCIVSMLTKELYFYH
# SUMO-activating enzyme [2] = target: T3, SUMO-activating enzyme (Homo sapiens, UniProt Q9UBT2); experiment: blockers of SAE1/SAE2–UBC9 SUMO transfer – biochemical, HTRF, uHTS, primary screen (AID 2006); format: protein-complex assay
# T3 sequence (Q9UBE0 whole entry): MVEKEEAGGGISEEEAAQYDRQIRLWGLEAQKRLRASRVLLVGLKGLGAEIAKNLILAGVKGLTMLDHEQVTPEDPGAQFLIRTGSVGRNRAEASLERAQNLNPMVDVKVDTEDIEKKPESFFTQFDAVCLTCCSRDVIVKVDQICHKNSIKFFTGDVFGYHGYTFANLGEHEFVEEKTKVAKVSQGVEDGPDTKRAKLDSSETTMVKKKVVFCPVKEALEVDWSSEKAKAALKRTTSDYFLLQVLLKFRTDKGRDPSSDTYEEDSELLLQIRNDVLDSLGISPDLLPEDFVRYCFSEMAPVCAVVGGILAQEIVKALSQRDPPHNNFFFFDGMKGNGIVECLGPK
# T3 sequence (Q9UBT2 whole entry): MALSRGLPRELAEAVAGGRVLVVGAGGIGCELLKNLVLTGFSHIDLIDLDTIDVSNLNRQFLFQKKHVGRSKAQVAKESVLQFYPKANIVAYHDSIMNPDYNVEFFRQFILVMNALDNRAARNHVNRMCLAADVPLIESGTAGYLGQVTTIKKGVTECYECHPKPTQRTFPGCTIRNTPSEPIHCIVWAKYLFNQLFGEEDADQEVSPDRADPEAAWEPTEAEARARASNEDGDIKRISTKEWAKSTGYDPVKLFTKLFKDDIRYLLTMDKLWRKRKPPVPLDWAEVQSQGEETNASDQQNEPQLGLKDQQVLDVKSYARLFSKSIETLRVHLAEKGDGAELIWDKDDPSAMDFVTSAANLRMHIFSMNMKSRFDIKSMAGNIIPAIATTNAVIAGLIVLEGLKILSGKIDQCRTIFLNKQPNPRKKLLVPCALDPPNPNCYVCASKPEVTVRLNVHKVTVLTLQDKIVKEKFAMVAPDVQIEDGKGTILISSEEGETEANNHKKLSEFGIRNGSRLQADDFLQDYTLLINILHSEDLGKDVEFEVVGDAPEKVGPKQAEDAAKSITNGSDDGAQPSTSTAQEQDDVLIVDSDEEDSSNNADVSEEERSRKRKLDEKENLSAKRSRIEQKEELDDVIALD
# [3] = target: T4, Long-chain-fatty-acid--AMP ligase FadD28 (Mycobacterium tuberculosis, UniProt P9WQ59); experiment: Fluorescence polarization aasay to screen for inhibitors that compete for the binding of FadD28 to a bisubstrate Measured in Biochemical System Using Plate Reader - 2147-01_Inhibitor_Dose_CherryPick_Activity.; format: functional, Mycobacterium tuberculosis H37Rv
# T4 sequence (P9WQ59 whole entry): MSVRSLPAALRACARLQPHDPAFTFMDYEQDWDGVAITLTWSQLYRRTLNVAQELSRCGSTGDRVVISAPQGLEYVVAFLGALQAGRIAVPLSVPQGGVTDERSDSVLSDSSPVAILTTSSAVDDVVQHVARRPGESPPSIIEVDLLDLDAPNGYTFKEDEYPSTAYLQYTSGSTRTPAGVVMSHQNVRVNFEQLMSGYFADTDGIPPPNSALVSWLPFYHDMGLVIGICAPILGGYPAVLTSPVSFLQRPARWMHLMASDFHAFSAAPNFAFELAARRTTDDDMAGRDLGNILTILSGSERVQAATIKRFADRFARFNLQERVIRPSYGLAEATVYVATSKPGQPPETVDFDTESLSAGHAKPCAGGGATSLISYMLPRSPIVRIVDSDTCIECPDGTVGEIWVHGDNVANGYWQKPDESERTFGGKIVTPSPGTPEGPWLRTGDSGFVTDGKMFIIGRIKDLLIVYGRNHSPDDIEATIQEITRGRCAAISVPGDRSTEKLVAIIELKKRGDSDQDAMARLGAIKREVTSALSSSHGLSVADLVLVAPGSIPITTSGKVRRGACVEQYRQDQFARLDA
# [4] = fluconazole-exposed Candida albicans growth modulators – fluorescence, retest, confirmation (AID 2467); format: functional, cell-based
# [5] = NIH-3T3 fibroblast cytotoxicity, dose response, cytotoxicity control, cell-based, fluorescence, Alamar Blue, secondary assay (AID 2327); format: functional;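 also: NIH-3T3 mouse fibroblasts cultured with fluconazole at 8 µg/mL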
# SUMO-activating enzyme [6] = target: T3, SUMO-activating enzyme; experiment: blockers of UBC9-mediated SUMO conjugation – biochemical, AlphaScreen, SUMOylation inhibitor project, confirmation (AID 2018); format: functional
# [7] = target: T5, Sentrin-specific protease 6 (Homo sapiens, UniProt Q9GZR1); format: functional;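 also: Luminescence-based dose-response confirmatory assay of SENP6 inhibition, following up an ultra-high-throughput screen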
# T5 sequence (Q9GZR1 whole entry): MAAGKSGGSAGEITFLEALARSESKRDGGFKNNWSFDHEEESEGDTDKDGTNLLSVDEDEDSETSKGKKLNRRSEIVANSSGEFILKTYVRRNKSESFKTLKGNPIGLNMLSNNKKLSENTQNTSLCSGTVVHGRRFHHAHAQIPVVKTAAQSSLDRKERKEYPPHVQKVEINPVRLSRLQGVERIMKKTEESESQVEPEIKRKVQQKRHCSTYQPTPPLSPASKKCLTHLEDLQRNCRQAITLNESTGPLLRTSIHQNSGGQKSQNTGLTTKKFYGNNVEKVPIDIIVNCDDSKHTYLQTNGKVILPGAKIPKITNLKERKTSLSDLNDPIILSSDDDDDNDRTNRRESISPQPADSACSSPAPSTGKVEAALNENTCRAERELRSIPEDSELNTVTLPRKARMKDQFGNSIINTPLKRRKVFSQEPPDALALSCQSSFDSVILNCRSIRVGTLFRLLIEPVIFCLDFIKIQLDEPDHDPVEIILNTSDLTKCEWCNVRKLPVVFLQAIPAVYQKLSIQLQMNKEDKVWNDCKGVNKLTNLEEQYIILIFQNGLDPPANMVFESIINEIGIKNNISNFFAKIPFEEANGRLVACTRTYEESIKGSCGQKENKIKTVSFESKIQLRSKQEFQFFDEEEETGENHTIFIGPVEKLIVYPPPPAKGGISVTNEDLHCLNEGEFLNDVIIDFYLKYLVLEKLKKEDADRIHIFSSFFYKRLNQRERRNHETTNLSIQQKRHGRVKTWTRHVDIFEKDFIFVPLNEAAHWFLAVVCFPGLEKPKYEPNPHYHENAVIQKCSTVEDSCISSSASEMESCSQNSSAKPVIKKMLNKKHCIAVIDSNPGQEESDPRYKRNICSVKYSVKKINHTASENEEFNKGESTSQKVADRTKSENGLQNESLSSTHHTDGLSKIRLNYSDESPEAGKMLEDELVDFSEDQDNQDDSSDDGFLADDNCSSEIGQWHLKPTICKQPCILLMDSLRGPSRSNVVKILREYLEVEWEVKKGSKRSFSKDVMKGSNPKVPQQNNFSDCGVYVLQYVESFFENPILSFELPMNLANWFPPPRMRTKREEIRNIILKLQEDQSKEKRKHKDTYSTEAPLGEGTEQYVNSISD
# INS1 = experiment: INS-1E survival protection against cytokine death – cell-based, luminescence, retest, dose response (AID 449756); format: functional; conditions: Rattus norvegicus;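 also: cell death triggered by IL-1 beta plus TNF-alpha plus IFN-gamma mixture; protective hits raise ATP signal compared with cytokine alone wells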
# [8] = target: T6, Sentrin-specific protease 8 (Homo sapiens, UniProt Q96LD8); format: functional;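 also: luminescence read-out of SENP8 inhibition, dose-response confirmation following an ultra-high-throughput screen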
# T6 sequence (Q96LD8 whole entry): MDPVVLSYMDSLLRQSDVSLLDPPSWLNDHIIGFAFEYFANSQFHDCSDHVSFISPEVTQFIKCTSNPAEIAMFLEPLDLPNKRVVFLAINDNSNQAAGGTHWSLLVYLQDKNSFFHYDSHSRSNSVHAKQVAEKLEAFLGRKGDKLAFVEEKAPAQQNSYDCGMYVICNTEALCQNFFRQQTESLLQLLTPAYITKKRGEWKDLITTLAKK
structure (smiles),measurement,setting,value
O=[N+]([O-])c1ccc(O)c(/C=N/NC(=S)Nc2ccc(Cl)cc2Cl)c1,IC50,[1],3.08 µM (active)
same,IC50,Albumin,> 94.1 µM (inactive)
same,IC50,Caspase-3,28.3 µM (active)
same,IC50,SUMO-activating enzyme [2],23.1 µM (active)
same,AC50,[3],> 100 µM (inactive)
same,EC50,[4],3.32 µM (active)
same,EC50,[5],> 160 µM (inactive)
same,IC50,SUMO-activating enzyme [6],1.41 µM (active)
same,IC50,[7],3.15 µM (active)
same,AC50,INS1,1.72 µM (active)
same,IC50,[8],7.38 µM (active)
